Data on eight compounds can be found in US10106580B2, “Enopeptins, uses thereof, and methods of synthesis thereto” (Brown University, priority 2011, dated 2018).

Assay [1] has as its system Methicillin-susceptible S. aureus (ATCC 35556). The assay is described as follows: Broth dilution MIC/MBC vs methicillin-susceptible S. aureus. It is filed as cell-based, Staphylococcus aureus. The conditions noted are these: for MIC / MBC: Staphylococcus aureus, ATCC 35556 / MSSA, MSSA (ATCC 35556); for MBC: 99.9% kill after 24 h. An excerpt: (§1) The naturally occurring enopeptins and the synthetic derivative ADEP 4 are reported to have strong antibacterial activity (see, e.g., Hinzen et al., Chem Med Chem 2006, 1, 689). Broth dilution assays were used to determine the MICs of the acyldepsipeptide derivatives 10a-h against both ATCC strains and clinical isolates of S. epidermis, S. aureus, and Enterococci obtained from patients of the Veterans Affairs Medical Center in Providence, R.I. Clinical isolates were included to gain a better indication of the potential of these new antibacterial agents (see, e.g., Clinical and Laboratory Standard Institute (CLSI) Methods for dilution antimicrobial susceptibility tests for bacteria that grow aerobically M07-A8; CLSI 8th ed., Wayne, Pa., 2009; Clinical Laboratory Standards Institute (CLSI) Performance standards for antimicrobial susceptibility testing M100-S19. CLSI 19th informational suppl., Wayne, Pa. 2009). In the interest of assessing the cell-killing ability of these compounds, the minimal bactericidal concentrations (MBC) of the compounds was also determined against the aformentioned strains. The MIC was defined as the lowest concentration of an antimicrobial agent visually inhibiting more than 99% of the colonies.
(§2) Minimum inhibitory concentrations (MIC) were determined in duplicate using methods outlined by The Clinical and Laboratory Standards Institute. Compounds were dissolved in DMSO and fresh cation-adjusted Mueller-Hinton broth (SMHB; Difco Laboratories, Sparks, Md., USA; 25 μg/mL calcium and 12.5 μg/mL magnesium) was used to dilute antimicrobial agents in a serial 2-fold schedule. Colony counts for the inoculum verification was determined using Tryptic Soy Agar plates (TSA, Difco, Becton Dickinson Co., Sparks, Md., USA). Following incubation, 100 μL of broth was subcultured onto TSA for MBC determination. MIC and MBC determination can be found in Table 2 and 3. Control isolates were obtained from the American Type Culture Collection (ATCC) and were as follows: Methicillin-resistant S. epidermidis (MRSE ATCC 35984); MSSA (ATCC 35556) and, VRE (ATCC 2030).
For orientation: In broth dilution the organism is exposed to a series of concentrations in liquid medium.

Assay [2] concerns Staphylococcus epidermis (ATCC 25984). The experiment in a line: Broth dilution MIC/MBC vs Staphylococcus epidermis. The conditions noted are these: ATCC25984. It is filed as cell-based.
From the text: as §1, with “The MIC was defined as the lowest concentration of an antimicrobial agent visually inhibiting more than 99% of the colonies.” left out
(§3) Minimum inhibitory concentrations (MIC) were determined in duplicate using methods outlined by The Clinical and Laboratory Standards Institute. […] Colony counts for the inoculum verification was determined using Tryptic Soy Agar plates (TSA, Difco, Becton Dickinson Co., Sparks, Md., USA). […]

In assay [3] the test system is Enterococcus faecalis (ATCC 29212). The experiment in a line: Broth dilution MIC/MBC vs E. faecalis ATCC strain. In kind it is cell-based. The following applies: ATCC29212, EF^1: E. faecalis (ATCC 29212).
From the text: as §1, §2

Another assay concerns S. aureus strains. The experiment in a line: Antibacterial activity vs S. aureus strains, stated in words. It is filed as cell-based, Staphylococcus aureus.
From the text: as §1, with “The MIC was defined as the lowest concentration of an antimicrobial agent visually inhibiting more than 99% of the colonies.” left out
as §3

The subject of assay [4] is Vancomycin-resistant Enterococcus faecium (clinical isolate obtained from tissue). The assay is described as follows: Broth dilution MIC/MBC vs vancomycin-resistant E. faecium. The following applies: VRE. In kind it is cell-based.
From the text: as §1, §2

In assay [5] the test system is Enterococcus faecalis (clinical isolate from rectal swab). The assay is described as follows: Broth dilution MIC/MBC vs E. faecalis clinical isolate. It is filed as cell-based. The following applies: EF^2: E. faecalis (clinical isolate from rectal swab).
From the text: as §1, §2

Assay [6] relates to Methicillin-resistant S. aureus (clinical isolate from blood). The assay is described as follows: Broth dilution MIC/MBC vs methicillin-resistant S. aureus. In kind it is cell-based. The conditions noted are these: Staphylococcus aureus, MRSA (clinical isolate from blood); for MBC: 99.9% kill after 24 h.
From the text: as §1, §2

Assay [7] has as its system Vancomycin-resistant Enterococcus faecalis (clinical isolate from rectal swab). The assay is described as follows: Broth dilution MIC/MBC vs vancomycin-resistant E. faecalis. In kind it is cell-based. The conditions noted are these: VRE.
From the text: as §1, §2

Assay [8] concerns E. faecalis and vancomycin-resistant E. faecium. The experiment in a line: Antibacterial activity vs panel of pathogenic Enterococci, stated in words. It is filed as cell-based. The conditions noted are these: against E. faecalis and vancomycin-resistant E. faecium.
From the text: as §1, with “The MIC was defined as the lowest concentration of an antimicrobial agent visually inhibiting more than 99% of the colonies.” left out
as §3

Usually MIC stands for the smallest concentration in the dilution series that meets the test's criterion for growth inhibition. A higher MIC goes with a less susceptible organism. A word on the MBC: it is the lowest tested concentration that kills the bacteria rather than only halting them. Read a high MBC as weaker bactericidal potency.

Each structure is given as a SMILES string. Values after ≈ are worked out from the molar mass of the structure shown. Numbered stars: 1 amine (or outer) side, 2 acyl side, 3 side chain; on linkers, the order of the positions; unused ones are H or OH. Bridge positions count the residues as written; N and C are the ends. Square brackets hold non-standard residues; d marks the D form. Peptide text beside a SMILES is read from it. * marks the point of attachment. Phe(3-F) = N[C@@H](Cc1cccc(F)c1)C(=O)O; X2 = CC1CCN([*:1])[C@@H](C(=O)[*:2])C1; X1 = CC1CCN([*:1])[C@H](C(=O)[*:2])C1; X3 = CCC(CC)(C(=O)[*:2])N(C)[*:1]; Heptenoyl(2E) = CCCC/C=C/C(=O)*; NMeAc6c = CNC1(C(=O)O)CCCCC1; NMeAc5c = CNC1(C(=O)O)CCCC1; NMeAc4c = CNC1(C(=O)O)CCC1

`CCCC/C=C/C(=O)N[C@@H](Cc1cccc(F)c1)C(=O)N[C@H]1COC(=O)[C@@H]2CCCN2C(=O)[C@H](C)NC(=O)[C@@H]2CCCCN2C(=O)[C@@H]2CCCN2C1=O` [Compound 10a]: the minimum inhibitory concentration (MIC) in assay [1] amounted to 1.25 µg/mL (≈ 1.69 µM); in [2], 1.25 µg/mL (≈ 1.69 µM); in [3], 0.16 µg/mL (≈ 0.217 µM); in [4], 0.08 µg/mL (≈ 0.108 µM); in [5], 0.04 µg/mL (≈ 0.0541 µM); in assay [6], 1.25 µg/mL (≈ 1.69 µM). Also, in [7], the minimum inhibitory concentration (MIC) was 0.04 µg/mL (≈ 0.0541 µM). In addition, the MBC was 1.25 µg/mL (≈ 1.69 µM) in [1]; 1.25 µg/mL (≈ 1.69 µM) in assay [2]; 1.25 µg/mL (≈ 1.69 µM) in assay [3]; 0.08 µg/mL (≈ 0.108 µM) in [4]; 0.04 µg/mL (≈ 0.0541 µM) in assay [5]; 1.25 µg/mL (≈ 1.69 µM) in assay [6]. For the same compound, the minimal bactericidal concentration (MBC) in [7] amounted to 0.04 µg/mL (≈ 0.0541 µM). Besides, the antibacterial activity entry in the assay on S. aureus strains is recorded as “exhibited the expected antibacterial activity”.

As to `CCCC/C=C/C(=O)N[C@@H](Cc1cccc(F)c1)C(=O)N[C@H]1COC(=O)[C@@H]2CCCN2C(=O)[C@H](C)NC(=O)[C@H]2CCCCN2C(=O)[C@@H]2CCCN2C1=O` [Compound 10b], in [1], the minimum inhibitory concentration (MIC) was greater than 312 µg/mL and the minimal bactericidal concentration (MBC) was greater than 312 µg/mL. Besides, in [6], the minimal inhibitory concentration (MIC) was greater than 312 µg/mL and the MBC is greater than 312 µg/mL.

On to `CCCC/C=C/C(=O)N[C@@H](Cc1cccc(F)c1)C(=O)N[C@H]1COC(=O)[C@@H]2CCCN2C(=O)[C@H](C)NC(=O)[C@@H]2CC(C)CCN2C(=O)[C@@H]2CCCN2C1=O` (some centres unmarked) [Compound 10c] ({Heptenoyl(2E)}-[Phe(3-F)]SP[X1]AP; ester 2-C), for which the minimal inhibitory concentration (MIC) in assay [1] was found to be 0.6 µg/mL (≈ 0.797 µM); in assay [3], 0.04 µg/mL (≈ 0.0531 µM); in assay [4] it was 0.04 µg/mL (≈ 0.0531 µM); in [5], 0.02 µg/mL (≈ 0.0266 µM); in assay [6], 0.6 µg/mL (≈ 0.797 µM); in [7], 0.04 µg/mL (≈ 0.0531 µM). Also, the minimum bactericidal concentration (MBC) is 0.6 µg/mL (≈ 0.797 µM) in [1]; 0.08 µg/mL (≈ 0.106 µM) in [3]; 0.08 µg/mL (≈ 0.106 µM) in [4]; 0.04 µg/mL (≈ 0.0531 µM) in assay [5]; 2.4 µg/mL (≈ 3.19 µM) in assay [6]; 0.04 µg/mL (≈ 0.0531 µM) in assay [7]. In addition, the “antibacterial activity compared with compound 10a” value in assay [1] (against MSSA, in words) was “better activity than compound 10a”; in assay [8], “more potent activity”.

On to `CCCC/C=C/C(=O)N[C@@H](Cc1cccc(F)c1)C(=O)N[C@H]1COC(=O)[C@@H]2CCCN2C(=O)[C@H](C)NC(=O)[C@H]2CC(C)CCN2C(=O)[C@@H]2CCCN2C1=O` (some centres unmarked) [Compound 10d] ({Heptenoyl(2E)}-[Phe(3-F)]SP[X2]AP; ester 2-C), for which, in [1], the minimum inhibitory concentration (MIC) is greater than 156 µg/mL and the MBC is greater than 156 µg/mL. In assay [6], the minimum inhibitory concentration (MIC) is greater than 156 µg/mL and the MBC amounted to 0.156 µg/mL (≈ 0.207 µM).

In assay [1], `CCCC/C=C/C(=O)N[C@@H](Cc1cccc(F)c1)C(=O)N[C@H]1COC(=O)[C@@H]2CCCN2C(=O)[C@H](C)NC(=O)C(CC)(CC)N(C)C(=O)[C@@H]2CCCN2C1=O` [Compound 10e] ({Heptenoyl(2E)}-[Phe(3-F)]SP[X3]AP; ester 2-C) came in with an MIC of 78.1 µg/mL (≈ 103 µM) and an MBC greater than 312 µg/mL. In assay [6], this compound returned an MIC greater than 312 µg/mL and a minimum bactericidal concentration (MBC) greater than 312 µg/mL.

Take `CCCC/C=C/C(=O)N[C@@H](Cc1cccc(F)c1)C(=O)N[C@H]1COC(=O)[C@@H]2CCCN2C(=O)[C@H](C)NC(=O)C2(CCC2)N(C)C(=O)[C@@H]2CCCN2C1=O` [Compound 10f] ({Heptenoyl(2E)}-[Phe(3-F)]SP[NMeAc4c]AP; ester 2-C): the minimum inhibitory concentration (MIC) in [1] is 312 µg/mL (≈ 422 µM); in [6], greater than 312 µg/mL. The MBC in [1] and in assay [6] was greater than 312 µg/mL each time.

For `CCCC/C=C/C(=O)N[C@@H](Cc1cccc(F)c1)C(=O)N[C@H]1COC(=O)[C@@H]2CCCN2C(=O)[C@H](C)NC(=O)C2(CCCC2)N(C)C(=O)[C@@H]2CCCN2C1=O` [Compound 10g] ({Heptenoyl(2E)}-[Phe(3-F)]SP[NMeAc5c]AP; ester 2-C), in assay [1], the minimal inhibitory concentration (MIC) turned out to be 39.1 µg/mL (≈ 51.9 µM) and the MBC is greater than 312 µg/mL. In addition, in [6], the minimum inhibitory concentration (MIC) was greater than 312 µg/mL and the MBC is greater than 312 µg/mL.

For `CCCC/C=C/C(=O)N[C@@H](Cc1cccc(F)c1)C(=O)N[C@H]1COC(=O)[C@@H]2CCCN2C(=O)[C@H](C)NC(=O)C2(CCCCC2)N(C)C(=O)[C@@H]2CCCN2C1=O` [Compound 10h] ({Heptenoyl(2E)}-[Phe(3-F)]SP[NMeAc6c]AP; ester 2-C), the minimum inhibitory concentration (MIC) was 39.1 µg/mL (≈ 51 µM) in [1] and greater than 312 µg/mL in assay [6]. The MBC in [1] and in assay [6] was greater than 312 µg/mL each time.
